We go through two molecules from patent US20050085408A1, “Drugs ameliorating hypo-hdl cholesterolemia” (priority 2001, published 2005).

Where a SMILES comes first, the peptide text is derived from it. [ ]: non-standard residue; d: D form. Nle = CCCC[C@H](N)C(=O)O

For one experiment, the system named is ABCA1. In words: Increase of the expression of ABCA1 in THP-1-derived macrophages (immunoblotting). Type of experiment: cell-based, human. As to conditions: for intracellular expression of ABCA1 compared with control cells: THP-1 macrophages. As for the experimental part: THP-1 cells (human leukemia cell, American Type Culture Collection) were cultured for 72 hours in a 10% FBS-RPMI1640 medium (Iwaki Glass Co., Ltd.), together with PMA (phorbol myristate acetate, Wako Pure Chemical Industries Ltd.) to obtain differentiated macrophages. The medium was replaced with 0.2% BSA-RPMI 1640 (Iwaki Glass Co., Ltd.) to which ALLN (50 μM, Sigma) was added, and examined for the time-course of intracellular ABCA1 expression according to the method illustrated herein below.
ALLN-treated cells and control cells cultivated in ALLN-free media were hypotonically disrupted in 5 mM Tris-HCl (pH8.5), and then centrifuged (650 g, for 5 minutes) to precipitate nuclear fractions. The supernatant was centrifuged at 105,000 g for 30 minutes to collect a total membrane fraction. The total membrane was dissolved in an aqueous solution containing 0.9M urea, 0.2% triton X-100 (Wako Pure Chemical Industries Ltd.), and 0.1% dithiothreitol (Wako Pure Chemical Industries Ltd.), followed by addition of 10% lithium dodecyl sulfate solution (Wako Pure Chemical Industries Ltd.) at a volume ratio of 1/4. The resultant was subjected to electrophoretic separation using 10% SDS-7% polyacrylamide gel (Wako Pure Chemical Industries Ltd.). The separated protein was fixed and transferred onto PVDF membrane (Bio-Rad). Each sample was then subjected to immunoblotting with rabbit anti-human ABCA1 antibody (self-made purification by an ordinary method) to quantitate expressed ABCA1 proteins. The obtained bands were read for density and size with Scion Image (image analysis software, Scion) to digitize the results.
In the same manner as in Assay Example 1, THP-1 cells were cultured in a medium to which leupeptin was added in place of ALLN, and compared with control cells non-treated with leupeptin.
A general note: In western blotting, separated proteins are transferred to a membrane and probed.

A further experiment deals with THP-1 cells. In words: Acceleration of apoAI-dependent HDL formation (cholesterols and phospholipids transported into the medium). The format is cell-based, human. Particulars: apoAI & ALLN-added cells vs control group and apoAI-added group; FIG. 3. An excerpt:
In the same manner as in Arakawa et al., J. Lipid Res., 41, 1952-1962 (2000), THP-1 cells were used for quantitative analysis of cholesterols and phospholipids transported into the medium on the basis of apoAI-dependent HDL formation. ALLN-added cells were compared with those free of ALLN addition.

In the case of `CCCC[C@@H](C=O)NC(=O)[C@H](CC(C)C)NC(=O)[C@H](CC(C)C)NC(C)=O` [ALLN, N-acetyl-leu-leu-norleucinal] (Ac-Leu-Leu-[Nle]-aldehyde), in the experiment with ABCA1 (ALLN 50 μM in medium), the “intracellular expression of ABCA1 compared with control cells” value is listed as “remarkable intracellular expression of ABCA1”. Further, the “action of increasing the expression of ABCA1” value in the experiment with ABCA1 (ALLN 50 μM, 24 hours after addition) is reported as “found even 24 hours after addition”. Further, in the experiment on THP-1 cells, the “amount of apoAI-dependently transported cholesterols” value is listed as “increase” and the “amount of apoAI-dependently transported phospholipids” value was “increase”.

For `CC(=O)N[C@@H](CC(C)C)C(=O)N[C@@H](CC(C)C)C(=O)N[C@H](C=O)CCCNC(=N)N` [leupeptin], the “intracellular expression of ABCA1 compared with control cells” value in the experiment with ABCA1 (leupeptin in place of ALLN, FIG. 2 at 7 hours after addition) is listed as “remarkable increase in the intracellular expression of ABCA1”. Besides, the “action of elevating the expression of ABCA1” value in the experiment on ABCA1 (leupeptin, 24 hours after addition to the medium) is “found even 24 hours after addition”.
